Test results taken from patent US10123533B2, “Nitrogen containing surfactants for agricultural use” (AKZO NOBEL CHEMICALS INTERNATIONAL B.V., priority 2009, dated 2018).

Assays:
[1] = test system: morning glory (IPOHE, a broad leaf week); assay: Green house % Control of glyphosate samples with various surfactants (Example 1), morning glory; assay type: in vivo; conditions: MG
Excerpt: (§1) Four glyphosate samples with various surfactants were sprayed on morning glory (IPOHE, a broad leaf week) and wheat (TRIAV, a narrow leaf grass) in a green house setting. The surfactants are designated in Table 1.
(§2) The glyphosate rates of the spray solutions were 186, 372, and 743 g ae/ha (gram acid equivalent per hectare). […] Higher ratio means lower surfactant concentration. A ratio of 6.7 means the sample, at the same glyphosate concentration, has 2.2 times less surfactant than a sample with a ratio of 3.
(§3) Sample D served as a negative control, since it contained only glyphosate without added surfactant. Sample C served as a positive control since it is well known that tallowamine-15EO is an excellent surfactant to enhance glyphosate efficacy.
(§4) % Control ratings were conducted by an experienced person at 7, 14, 21, and 29 days after treatment (DAT). Digital pictures were also taken at the time of rating. Each % Control value was an average of 4 replicas.

[2] = test system: wheat (TRIAV, a narrow leaf grass); assay: Green house % Control of glyphosate samples with various surfactants (Example 1), wheat; assay type: in vivo; conditions: WT
Excerpt: as §1, §2, §3, §4

wheat = assay: Example 5 trial of glyphosate formulations on wheat; assay type: in vivo; conditions: rate of 168 g ae/ha; glyphosate to surfactant ratio 3:1; 21DAT
Excerpt: FIG. 13 is a photo of wheat taken at 21 days after treatment with glyphosate alone, glyphosate with tallowamine-15EO, glyphosate with cocoamine-6EO betaine, and no glyphosate.
Cocoamine-6EO betaine was compared in the same trial with tallowamine-15EO as the positive control and the surfactant-free sample as negative control in glyphosate formulations. Glyphosate to surfactant ratio was 3:1.
This can be seen from the picture at FIG. 13, taken at 21DAT.

[3] = test system: morning glory (IPOHE) and winter wheat (TRZAW); assay: Example 2 green house trial of concentrated glyphosate samples, % control at 28 DAT; assay type: in vivo; conditions: glyphosate:surfactant 13:1, 489 and 978 g ae/ha, vs glyphosate alone
Protocol: The concentrated glyphosate samples were diluted to two glyphosate rates and sprayed in a green house so that the final glyphosate rates of the spray solutions were 489 and 978 g ae/H. Three samples at two rates equals six treatments that were sprayed on each of two species, morning glory (IPOHE, a broad leaf week) and winter wheat (TRZAW, a narrow leaf grass). Two rates were employed, 978 g ae/H, and 16-30 at 489 g ae/ha.
Higher ratio means lower surfactant concentration. A ratio of 13:1 means the sample, at the same glyphosate concentration, has 4.3 times less surfactant than a sample with a ratio of 3:1.
Sample A (glyphosate with added tallowamine-15EO) served as a positive control. Sample B containing only glyphosate without added surfactant served as a negative control.
FIGS. 7-8 illustrates the % control results at 28 DAT.

[4] = Solubility tests of prior art betaines in concentrated glyphosate salt solutions; assay type: physicochemical
Excerpt: WO2000038523 (Huntsman, U.S. Pat. No. 6,500,784, U.S. Pat. No. 6,653,257, EP1139761) discloses an amphoteric surfactant with the structure RCONH(CH2)nN^+R^12CH2COO^− where R^1 is alkyl or hydroxyl alkyl group with C1 to C4 and n=2-4, and discloses a betaine with the structure R R^12N^+CH2COO^− where R^1 is alkyl or hydroxyl alkyl group with C1 to C4. The amphoterics disclosed there mainly functioned as a co-surfactant to solubilize a ether carboxylate in to concentrated glyphosate systems. In the context of the document, there was no mention of bioefficacy of betaines or other amphoteric surfactants by themselves. […] However, without proper testing of individual surfactant, it is not possible to determine whether the effect seen in the mixture of three surfactants comes from the claimed surfactant or the other two surfactants. Moreover, no actual bioefficacy data and especially no data are provided on the degree of “overall kill” provided in the absence of surfactants and in the presence of surfactants; without such data it is not possible to determine whether or not the claimed alkyl amido betaine was effective in enhancing herbicidal activity of glyphosate under the conditions of the test reported. This patent requires Na ion to be <0.035% for the glyphosate formulation to be stable. Moreover, it used only IPA-glyphosate as examples. […]

[5] = test system: morning glory (IPOHE) and wheat (TRIAV); assay: Example 1 green house trial, overall statement on adjuvancy; assay type: in vivo; conditions: glyphosate:surfactant ratio 6.7
Excerpt: as §1, §2, §4

morning glory and wheat = assay: Example 3 green house trial, % Control of glyphosate formulations; assay type: in vivo; conditions: 930, 465 and 233 g ae/ha; 28 DAT; compared with glyphosate formulation without surfactant
Excerpt: FIG. 9 is a bar graph illustrating the % control results of applying glyphosate formulation containing oleylamphopolycarboxy glycinate, glyphosate formulation containing tallowamine-10EO, and glyphosate alone, each at 233 g ae/ha, 465 g ae/ha, and 930 g ae/ha to morning glory at 28 days after treatment.
FIG. 10 is a bar graph illustrating the % control results of applying glyphosate formulation containing oleylamphopolycarboxy glycinate, glyphosate formulation containing tallowamine-10EO, and glyphosate alone, each at 233 g ae/ha, 465 g ae/ha, and 930 g ae/ha to wheat at 28 days after treatment.
Glyphosate formulation containing oleylamphopolycarboxy glycinate (Na salt) was compared in a green house trial with glyphosate formulation containing tallowamine-10EO (as positive control) and glyphosate alone in terms of % Control. Three glyphosate rates were used, 930 g ae/ha, 465 gae/ha, and 233 g ae/ha.
The results are plotted in FIGS. 9-10.

Molecule: CC(C)N.O=C(O)CNCP(=O)(O)O [Sample D, Glyphosate (isopropylamine salt)]
- % Control 7DAT ([1]; Glyph rate 186 g ae/h, average of 4 replicas): 55%
- % Control 14 DAT ([1]; Glyph rate 186 g ae/h): 68%
- % Control 21DAT ([1]; Glyph rate 186 g ae/h): 79%
- % Control 29DAT ([1]; Glyph rate 186 g ae/h): 68%
- % Control 7DAT ([1]; Glyph rate 372 g ae/h): 86%
- % Control 14 DAT ([1]; Glyph rate 372 g ae/h): 89%
- % Control 21DAT ([1]; Glyph rate 372 g ae/h): 95%
- % Control 29DAT ([1]; Glyph rate 372 g ae/h): 93%
- % Control 7DAT ([1]; Glyph rate 743 g ae/h): 83%
- % Control 14 DAT ([1]; Glyph rate 743 g ae/h): 90%
- % Control 21DAT ([1]; Glyph rate 743 g ae/h): 94%
- % Control 29DAT ([1]; Glyph rate 743 g ae/h): 91%
- % Control 7DAT ([2]; Glyph rate 186 g ae/h): 28%
- % Control 14 DAT ([2]; Glyph rate 186 g ae/h): 60%
- % Control 21DAT ([2]; Glyph rate 186 g ae/h): 80%
- % Control 29DAT ([2]; Glyph rate 186 g ae/h): 58%
- % Control 7DAT ([2]; Glyph rate 372 g ae/h): 58%
- % Control 14 DAT ([2]; Glyph rate 372 g ae/h): 85%
- % Control 21DAT ([2]; Glyph rate 372 g ae/h): 89%
- % Control 29DAT ([2]; Glyph rate 372 g ae/h): 89%
- % Control 7DAT ([2]; Glyph rate 743 g ae/h): 84%
- % Control 14 DAT ([2]; Glyph rate 743 g ae/h): 94%
- % Control 21DAT ([2]; Glyph rate 743 g ae/h): 98%
- % Control 29DAT ([2]; Glyph rate 743 g ae/h): 98%

Molecule: Ethoxylated cocoamine (6EO) betaine [cocoamine-6EO betaine]
- control to wheat (wheat): excellent control

Molecule: tallow diamine trimethyl di-betaine
- enhancement of glyphosate bioefficacy [3]: enhanced glyphosate bioefficacy even at very low rate

Molecule: O=C(O)CNCP(=O)(O)O [glyphosate sample without surfactant, glyphosate]
- control to wheat (wheat): did not give much control

Molecule: coco dimethylamidopropyl betaine
- amount of surfactant that could be dissolved ([4]; in a composition of 360 g ae/l potassium glyphosate): < 80 g/L

Molecule: Cocodiamine trimethyl betaines
- speed of glyphosate activity [5]: speeded up glyphosate activity
- adjuvancy for glyphosate ([5]; 186, 372, 743 g ae/ha): good adjuvancy for glyphosate even at very low use rate

Molecule: oleylamphopolycarboxy glycinate (Na salt)
- enhancement of glyphosate efficacy (morning glory and wheat): enhanced glyphosate efficacy

Molecule: CCCCCCCCCCCCCCCCCC(=O)NCCC[N+](C)(C)CC(=O)[O-] [stearyl dimethylamidopropyl betaine]
- amount of surfactant that could be dissolved ([4]; in a composition of 51.3% potassium glyphosate (aqueous)): < 1.8%

Molecule: tallowamine-15EO
- control to wheat (wheat): excellent control
